Data from patent publication US20250034159A1, “INHIBITORS OF EPIDERMAL GROWTH FACTOR RECEPTOR” (ORIC Pharmaceuticals, Inc., priority 2021, published 2025).
Like-named read-outs stand apart in the source and are kept apart here.

Columns and labels:
[1] = molecular target: recombinant human EGFR L858R/C797S double mutant protein (Homo sapiens (Human), UniProt P00533, C797S/L858R); experiment: Biological Activity Assay B: biochemical assay against EGFR L858R/C797S protein (EGFR LR/CS)
Procedure, shortened: (§1)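 IC50 values were fitted with a 4-parameter model to reaction slopes taken from 90 kinetic reads spaced 120 s apart. The Phosphosens sensor/ATP working solution was 40 uM/4 mM, and compound was dosed as 16-point dilutions at 2.5% final DMSO.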

[2] = molecular target: recombinant human EGFR exon 19 deletion/C797S double mutant protein (Homo sapiens (Human), UniProt P00533, C797S/DEL746-750); experiment: Biological Activity Assay C: biochemical assay against EGFR exon 19 deletion/C797S protein (EGFR d19/CS)
recombinant human EGFR exon 19 deletion/C797S double mutant protein, sequence (P00533 other isoform, or with tags, fused parts or gaps C797S/del 1-668/del 746-750 limits assumed): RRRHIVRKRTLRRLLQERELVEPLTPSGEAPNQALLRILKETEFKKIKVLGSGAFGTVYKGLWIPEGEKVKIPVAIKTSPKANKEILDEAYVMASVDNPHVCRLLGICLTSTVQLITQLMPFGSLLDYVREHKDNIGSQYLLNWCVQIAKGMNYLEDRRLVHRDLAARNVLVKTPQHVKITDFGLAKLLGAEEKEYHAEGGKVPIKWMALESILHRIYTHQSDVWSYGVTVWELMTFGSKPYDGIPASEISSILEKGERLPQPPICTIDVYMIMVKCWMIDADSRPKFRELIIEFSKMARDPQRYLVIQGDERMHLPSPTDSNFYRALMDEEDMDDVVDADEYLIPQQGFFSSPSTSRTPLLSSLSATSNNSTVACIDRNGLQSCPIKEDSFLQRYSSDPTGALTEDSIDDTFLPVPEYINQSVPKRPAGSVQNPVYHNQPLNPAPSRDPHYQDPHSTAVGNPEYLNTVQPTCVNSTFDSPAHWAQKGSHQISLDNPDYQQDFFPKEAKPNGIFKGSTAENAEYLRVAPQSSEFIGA
Procedure, shortened: as §1

Ba/F3_EGFR WT cells = experiment: Biological Activity Assay D: BaF3 cell proliferation assay, EGFR wild-type (BaF3 WT); assay type: cell-based; details: Ba/F3 EGFR, read-out: BaF3 WT IC50
BaF3_EGFR LR/CS cells = experiment: Biological Activity Assay D: BaF3 cell proliferation assay, EGFR L858R/C797S mutant (BaF3 LR/CS); assay type: cell-based; details: Ba/F3 EGFR, read-out: BaF3 LR/CS IC50
BaF3_EGFR d19/CS cells = experiment: Biological Activity Assay D: BaF3 cell proliferation assay, EGFR exon 19 deletion/C797S (BaF3 d19/CS); assay type: cell-based; details: Ba/F3 EGFR, read-out: BaF3 d19/CS IC50
[3] = Ba/F3_EGFR WT cells, ~72 hours, CellTiter-Glo
[4] = BaF3_EGFR LR/CS cells, ~72 hours, CellTiter-Glo
[5] = BaF3_EGFR d19/CS cells, ~72 hours, CellTiter-Glo

recombinant human EGFR L858R/C797S double mutant protein, sequence (P00533 25-1210 C797S/L858R): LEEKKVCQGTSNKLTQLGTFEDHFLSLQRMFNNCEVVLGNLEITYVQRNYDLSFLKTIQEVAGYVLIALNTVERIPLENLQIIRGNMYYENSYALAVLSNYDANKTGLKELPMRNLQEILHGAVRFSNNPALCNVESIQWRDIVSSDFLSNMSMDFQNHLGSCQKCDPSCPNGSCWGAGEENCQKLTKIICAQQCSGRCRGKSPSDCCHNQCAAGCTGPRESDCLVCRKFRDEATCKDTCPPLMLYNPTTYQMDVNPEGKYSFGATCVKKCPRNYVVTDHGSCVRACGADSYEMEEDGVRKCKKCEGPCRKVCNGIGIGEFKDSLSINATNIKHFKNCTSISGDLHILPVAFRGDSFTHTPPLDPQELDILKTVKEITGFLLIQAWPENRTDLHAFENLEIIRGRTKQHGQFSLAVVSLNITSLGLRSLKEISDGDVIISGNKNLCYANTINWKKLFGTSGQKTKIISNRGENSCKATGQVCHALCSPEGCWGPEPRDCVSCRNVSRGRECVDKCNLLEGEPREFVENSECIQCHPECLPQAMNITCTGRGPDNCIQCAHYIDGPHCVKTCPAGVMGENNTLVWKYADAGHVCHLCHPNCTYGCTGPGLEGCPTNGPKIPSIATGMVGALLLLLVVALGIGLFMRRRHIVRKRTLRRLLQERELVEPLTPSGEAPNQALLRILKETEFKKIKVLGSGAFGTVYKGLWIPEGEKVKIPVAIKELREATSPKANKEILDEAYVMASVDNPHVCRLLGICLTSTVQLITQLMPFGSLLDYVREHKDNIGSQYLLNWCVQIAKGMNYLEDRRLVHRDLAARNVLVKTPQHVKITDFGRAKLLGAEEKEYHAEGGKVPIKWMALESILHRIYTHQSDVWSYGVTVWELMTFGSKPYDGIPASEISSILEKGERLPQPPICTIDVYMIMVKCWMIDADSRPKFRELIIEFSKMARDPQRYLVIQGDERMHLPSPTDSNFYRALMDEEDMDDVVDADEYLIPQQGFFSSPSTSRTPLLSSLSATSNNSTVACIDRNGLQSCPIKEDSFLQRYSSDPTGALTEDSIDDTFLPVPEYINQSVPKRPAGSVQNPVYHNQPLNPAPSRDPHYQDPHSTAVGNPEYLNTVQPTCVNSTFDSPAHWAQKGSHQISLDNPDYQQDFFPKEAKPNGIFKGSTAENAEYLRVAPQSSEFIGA

Structure (SMILES) | IC50 [1] | IC50 [2] | IC50 (Ba/F3_EGFR WT cells; [3]) | IC50 (BaF3_EGFR LR/CS cells; [4]) | IC50 (BaF3_EGFR d19/CS cells; [5]) | IC50 (Ba/F3_EGFR WT cells; 72 h) | IC50 (BaF3_EGFR LR/CS cells; 72 h) | IC50 (BaF3_EGFR d19/CS cells; 72 h)
O=S1(=O)CC(Cn2ncc(-c3ncnc4oc(-c5ccccc5)cc34)c2-c2ccc(F)cc2)C1 [Example 112, 3-((5-(4-fluorophenyl)-4-(6-phenylfuro[2,3-d]pyrimidin-4-yl)-1H-pyrazol-1-yl)methyl)thietane 1,1-dioxide] | 12.9 nM | 12.5 nM | 7150 nM | 741 nM | 1150 nM | – | – | –
COC1(CCn2cc(-c3ncnc4oc(-c5ccccc5)cc34)c(-c3ccc(F)cc3)n2)COC1 [Example 113, 4-{3-(4-fluorophenyl)-1-[2-(3-methoxyoxetan-3-yl)ethyl]-1H-pyrazol-4-yl}-6-phenylfuro[2,3-d]pyrimidine] | 1.27 nM | 1.49 nM | 2190 nM | 256 nM | 315 nM | – | – | –
CS(=O)(=O)N1CC(n2cc(-c3ncnc4oc(-c5ccccc5)cc34)c(-c3ccc(F)cc3)n2)C1 [Example 114, 4-{3-(4-fluorophenyl)-1-[1-(methanesulfonyl)azetidin-3-yl]-1H-pyrazol-4-yl}-6-phenylfuro[2,3-d]pyrimidine] | 1.62 nM | 0.55 nM | 3320 nM | 132 nM | 137 nM | – | – | –
N#CCCCn1cc(-c2ncnc3oc(-c4ccccc4)cc23)c(-c2ccc(F)cc2)n1 [Example 116, 4-[3-(4-Fluorophenyl)-4-(6-phenylfuro[2,3-d]pyrimidin-4-yl)-1H-pyrazol-1-yl]butanenitrile] | 0.37 nM | 0.23 nM | – | – | – | 1510 nM | 22.9 nM | 47.6 nM
CNC(=O)CCn1cc(-c2ncnc3oc(-c4ccccc4)cc23)c(-c2ccc(F)cc2)n1 [Example 117, 3-[3-(4-fluorophenyl)-4-(6-phenylfuro[2,3-d]pyrimidin-4-yl)-1H-pyrazol-1-yl]-N-methylpropanamide] | 0.47 nM | 0.27 nM | 1270 nM | 103 nM | 93.7 nM | – | – | –
NC(=O)CCn1cc(-c2ncnc3oc(-c4ccccc4)cc23)c(-c2ccc(F)cc2)n1 [Example 118, 3-[3-(4-Fluorophenyl)-4-(6-phenylfuro[2,3-d]pyrimidin-4-yl)-1H-pyrazol-1-yl]propanamide] | 0.56 nM | 0.25 nM | 1020 nM | 38.3 nM | 50.5 nM | – | – | –
Fc1ccc(-c2nn(CC(F)F)cc2-c2ncnc3oc(-c4ccccc4)cc23)cc1 [Example 119, 4-[1-(2,2-Difluoroethyl)-3-(4-fluorophenyl)-1H-pyrazol-4-yl]-6-phenylfuro[2,3-d]pyrimidine] | 0.7 nM | 0.34 nM | 1340 nM | 35.5 nM | 50.9 nM | – | – | –
